One series concerns LAV strain of HIV. Nature of the series: Assay of anti-HIV activity: HIV production in infected MT-4 cells. It counts as cell-based. To be noted: in the dark, result in words.
The subject of series [1] is Herpes simplex virus (HSV) type 1, strain WT-51. Nature of the series: Anti-HSV activity: virus infectivity in culture fluid of infected BS-C-40 monolayers by plaque method. It counts as cell-based. As to conditions: m.o.i. 0.01, 18 hours of incubation, result in words. As for the experimental part: Herpes simplex virus (HSV) type 1, strain WT-51, and BS-C-40, an African green monkey kidney cell line, were used. HSV stock was prepared in BS-C-40 and the infectivity of the virus was measured on BS-C-40 monolayers by plaque method. Eagle's minimal essential medium (MEM) supplemented with 8% newborn calf serum was used as the culture medium and cells were incubated at 37°C in a humidified CO₂-incubator (5% CO₂, 95% air).
BS-C-40 monolayers were infected with HSV at the m.o.i. of 0.01 at 37°C for 1 hour and the monolayers were washed with MEM, and fresh culture medium was added. After 18 hours of incubation in the presence or absence of protoporpyrin, the virus infectivity in the culture fluid was measured by plaque method.
Two tenths ml aliquots of serially 10-fold diluted virus were inoculated onto confluent monolayer of cells in 35 mm plastic petridishes. After adsorption of the virus at 37°C for 1 hour, the monolayers were overlaid with 2 ml of MEM with 1% methylcellulose and 2% newborn calf serum. On day 3, the monolayers were stained with neutral red and plaque counts were made.

The conditions of series [2]: mouse, cited from earlier work.
The conditions of series [3]: intravenous, rat; cited from earlier work.
The conditions of series [4]: intravenous, rabbit; cited from earlier work.
For series [5] the following is noted: intravenous, cat; cited from earlier work.

Where a name gives a salt, the structure may show the parent alone. Read-outs that look alike come from different tables or passages of the source.

For the molecule `C=CC1=C(C)c2cc3[nH]c(cc4nc(cc5[nH]c(cc1n2)c(C)c5CCC(=O)O)C(CCC(=O)O)=C4C)c(C)c3C=C` [Protoporphyrin disodium salt], in the series with LAV strain of HIV, the “anti-HIV activity (antivirally active when production of HIV was reduced as compared with the control)” value was “potent anti-HIV activity”. Further, the anti-HSV activity entry in series [1] is listed as “no anti-HSV activity”. Also, the LD₅₀ is given as 1,028.6 mg/kg in series [2] (intraperitoneal); 347.3 mg/kg in series [2] (intravenous); > 25,000.0 mg/kg in series [2] (oral); 1,147.0 mg/kg in series [2] (subcutaneous); 240.3 mg/kg in series [3]; 220.0 mg/kg in series [4]. The LD₅₀ in series [5] is on record as 215.5 mg/kg.

(Values after EP0337598A2, “Use of porphyrins and metalloporphyrins in the treatment of diseases caused by Human Immunodeficiency Viruses” (GEORGIA STATE UNIVERSITY FOUNDATION, INC., priority 1988, dated 1989).)
